From patent US11691962B2 (eXIthera Pharmaceuticals, Inc., priority 2018, dated 2023)
pIC50: −log10 of the molar value.

Experiments:
Factor XIa = Factor XIa (Homo sapiens (Human), UniProt P03951); test: Factor XIa enzyme inhibition assay (dose response, fluorogenic AMC substrate); type: biochemical; conditions: read-out: hFXIa IC50
How it was run: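 Fluorogenic progress curves (30 min, 1-min reads, 30° C) were recorded for 0.25 nM FXIa cleaving 50 μM Glp-Pro-Arg-AMC in Hepes pH 7.4 buffer with NaCl and Tween 20. Compounds were serially two-fold diluted, and IC50 was fitted with a Hill equation.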

[1] = Metabolic stability in dog hepatocytes; type: in vitro ADME; conditions: pooled cryopreserved hepatocytes; beagle dog hepatocytes, 2 μM compound; read-out: Dog Hepatocyte Stability (t1/2)
Method: The following procedure was used to determine the stability of test compounds in beagle dog hepatocytes in a 96-well plate format. The test compounds, including the controls, imipramine and 7-ethoxycoumarin, were dissolved at 10 mM in DMSO, followed by further 5-fold dilution with DMSO to 2 mM. Pooled cryopreserved beagle dog hepatocytes were thawed and transferred into complete medium. Cells were gently centrifuged (700 rpm for 5 min) and the pellet rinsed with KHB (Krebs Henseleit buffer). Cells were resuspended, counted using Trypan blue, and adjusted to 1 million cells/mL in KHB buffer. The 2 mM compound stock solutions were diluted 10-fold with acetonitrile, followed by a further 50-fold dilution with KHB buffer. 200 μL of these compound solutions were transferred to 96-well polypropylene assay plates and an equal volume of the hepatocyte solution was added and mixed to initiate the reaction (final assay concentrations were 2 μM compound and 500,000 cells/mL). Assay plates were incubated at 37° C. in 5% CO2 with gentle agitation. 50 μL aliquots were removed at multiple time points out to 180 minutes and quenched with 6 volumes of cold acetonitrile (containing 250 ng/mL of carbutamide and chrysin as internal standards) to terminate the reaction and precipitate protein. Quenched samples were maintained on ice. The quenched samples were centrifuged at 2000×g (3100 rpm) for 10 minutes at 4° C. 50 μL aliquots of the supernatants were removed and diluted with 100 μL Milli-Q water to reduce the % organic content prior to bioanalysis by LC-MS/MS. Peak areas corresponding to the test compound were recorded. The compound remaining was calculated by comparing the peak area at each time point to time zero. Data were analyzed and results were calculated using Microsoft Excel 2010.

Factor XIa, sequence (P03951 388-625): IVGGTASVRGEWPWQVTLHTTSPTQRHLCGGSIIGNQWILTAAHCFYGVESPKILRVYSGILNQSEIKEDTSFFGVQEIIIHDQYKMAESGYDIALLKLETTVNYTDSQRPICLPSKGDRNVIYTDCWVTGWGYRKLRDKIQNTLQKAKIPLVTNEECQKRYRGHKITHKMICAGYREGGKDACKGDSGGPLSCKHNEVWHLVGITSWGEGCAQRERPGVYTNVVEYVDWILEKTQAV
Factor XIa, sequence (P03951 19-387 partner): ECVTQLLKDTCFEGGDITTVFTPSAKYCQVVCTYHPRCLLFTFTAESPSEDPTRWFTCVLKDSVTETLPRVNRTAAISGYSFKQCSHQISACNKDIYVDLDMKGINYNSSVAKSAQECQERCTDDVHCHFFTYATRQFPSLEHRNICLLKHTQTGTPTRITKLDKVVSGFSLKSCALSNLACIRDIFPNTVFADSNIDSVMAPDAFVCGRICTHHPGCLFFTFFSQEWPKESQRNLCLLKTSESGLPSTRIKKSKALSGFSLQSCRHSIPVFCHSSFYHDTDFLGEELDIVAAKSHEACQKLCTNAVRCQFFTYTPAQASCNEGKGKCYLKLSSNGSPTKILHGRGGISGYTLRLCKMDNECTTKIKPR

Molecule	pIC50 (Factor XIa)	half-life at 2 μM [1] [h]
CC[C@@H](NC(=O)N1C(=O)[C@H](Cc2cc(C)nc(NC)c2)[C@H]1C(=O)N(C)c1ccnn1C)C1CCCCC1 [Compound 1-62, (2S,3R)-3-((2-methylamino-6-methylpyridin-4-yl)methyl)-N2-(1-methyl-1H-pyrazol-5-yl)-N1-((R)-1-cyclohexylpropyl)-N2-methyl-4-oxoazetidine-1,2-dicarboxamide]	7.00 to 8.00	< 1
CC[C@@H](NC(=O)N1C(=O)[C@H](Cc2ccnc(N)c2)[C@H]1C(=O)N(C)c1cnn(C)c1)c1ccc(C)nc1 [Compound 1-18, (2S,3R)-3-((2-aminopyridin-4-yl)methyl)-N2-(1-methyl-1H-pyrazol-4-yl)-N1-((R)-1-(6-methylpyridin-3-yl)propyl)-N2-methyl-4-oxoazetidine-1,2-dicarboxamide]	7.00 to 8.00	2.02 to 4
CC[C@@H](NC(=O)N1C(=O)[C@H](Cc2ccnc(N)c2)[C@H]1C(=O)N(C)c1nccn1C)c1ccccc1Cl [Compound 1-83]	7.00 to 8.00	2.02 to 4
CC[C@@H](NC(=O)N1C(=O)[C@H](Cc2cc(C)nc(N)c2)[C@H]1C(=O)N(C)c1ccnn1C)C1CCCCC1 [Compound 1-67, (2S,3R)-3-((2-amino-6-methylpyridin-4-yl)methyl)-N2-(1-methyl-1H-pyrazol-5-yl)-N1-((R)-1-cyclohexylpropyl)-N2-methyl-4-oxoazetidine-1,2-dicarboxamide]	7.00 to 8.00	1.02 to 2
CC[C@@H](NC(=O)N1C(=O)[C@H](Cc2ccnc(N)c2)[C@H]1C(=O)N(C)c1ccn(C)n1)c1cccc(Cl)c1 [Compound 1-91, (2S,3R)-3-((2-aminopyridin-4-yl)methyl)-N2-(1-methyl-1H-pyrazol-3-yl)-N1-((R)-1-(3-chlorophenyl)propyl)-N2-methyl-4-oxoazetidine-1,2-dicarboxamide]	> 8.00	1.02 to 2
CC[C@@H](NC(=O)N1C(=O)[C@H](Cc2cc(C)nc(N)c2)[C@H]1C(=O)N(C)c1ccnn1C)c1ccc(C)c(C)c1 [Compound 1-152, (2S,3R)-3-((2-amino-6-methylpyridin-4-yl)methyl)-N2-(1-methyl-1H-pyrazol-5-yl)-N1-((R)-1-(3,4-dimethylphenyl)propyl)-N2-methyl-4-oxoazetidine-1,2-dicarboxamide]	> 8.00	1.02 to 2
CC[C@@H](NC(=O)N1C(=O)[C@H](Cc2ccnc(N)c2)[C@H]1C(=O)N(C)c1ccnn1C)C1CCCCC1 [Compound 1-63, (2S,3R)-3-((2-aminopyridin-4-yl)methyl)-N2-(1-methyl-1H-pyrazol-5-yl)-N1-((R)-1-cyclohexylpropyl)-N2-methyl-4-oxoazetidine-1,2-dicarboxamide]	> 8.00	< 1
CC[C@@H](NC(=O)N1C(=O)[C@H](Cc2ccnc(N)c2)[C@H]1C(=O)N(C)c1nccn1C)c1cccc(Cl)c1 [Compound 1-35, (2S,3R)-3-((2-aminopyridin-4-yl)methyl)-N2-(1-methyl-1H-imidazol-2-yl)-N1-((R)-1-(3-chlorophenyl)propyl)-N2-methyl-4-oxoazetidine-1,2-dicarboxamide]	> 8.00	1.02 to 2
CC[C@@H](NC(=O)N1C(=O)[C@H](Cc2ccnc(N)c2)[C@H]1C(=O)N(C)c1cccs1)c1ccccc1 [Compound 1-10, (2S,3R)-3-((2-aminopyridin-4-yl)methyl)-N2-(thiophen-2-yl)-N1-((R)-1-phenylpropyl)-N2-methyl-4-oxoazetidine-1,2-dicarboxamide]	> 8.00	< 1
(2S,3R)-3-((2-amino-6-methylpyridin-4-yl)methyl)-N2-(1-methyl-1H-imidazol-2-yl)-N1-((R)-1-(3-fluorophenyl)propyl)-N2-methyl-4-oxoazetidine-1,2-dicarboxamide [Compound 1-120]	> 8.00	–

Next, values leading:

pIC50 (Factor XIa)	half-life at 2 μM [1] [h]	Molecule
> 8.00	1.02 to 2	CC[C@@H](NC(=O)N1C(=O)[C@H](Cc2ccnc(N)c2)[C@H]1C(=O)N(C)c1nccn1C)C1CCCCC1 [Compound 1-55, (2S,3R)-3-((2-aminopyridin-4-yl)methyl)-N2-(1-methyl-1H-imidazol-2-yl)-N1-((R)-1-cyclohexylpropyl)-N2-methyl-4-oxoazetidine-1,2-dicarboxamide]
> 8.00	> 4	CC[C@@H](NC(=O)N1C(=O)[C@H](Cc2cc(C)nc(N)c2)[C@H]1C(=O)N(C)c1nccn1C)c1ccccc1 [Compound 1-51, (2S,3R)-3-((2-amino-6-methylpyridin-4-yl)methyl)-N2-(1-methyl-1H-imidazol-2-yl)-N1-((R)-1-phenylpropyl)-N2-methyl-4-oxoazetidine-1,2-dicarboxamide]
> 8.00	2.02 to 4	CC[C@@H](NC(=O)N1C(=O)[C@H](Cc2ccnc(N)c2)[C@H]1C(=O)N(C)c1ccnn1C)c1ccccc1 [Compound 1-92, (2S,3R)-3-((2-aminopyridin-4-yl)methyl)-N2-(1-methyl 1H-pyrazol-5-yl)-N1-((R)-1-phenylpropyl)-N2-methyl-4-oxoazetidine-1,2-dicarboxamide]
> 8.00	2.02 to 4	CC[C@@H](NC(=O)N1C(=O)[C@H](Cc2ccnc(N)c2)[C@H]1C(=O)N(C)c1nccn1C)c1cccc(C)c1 [Compound 1-80, (2S,3R)-3-((2-aminopyridin-4-yl)methyl)-N2-(1-methyl-1H-imidazol-2-yl)-N1-((R)-1-(3-methylphenyl)propyl)-N2-methyl-4-oxoazetidine-1,2-dicarboxamide]
> 8.00	2.02 to 4	CC[C@@H](NC(=O)N1C(=O)[C@H](Cc2cc(C)nc(N)c2)[C@H]1C(=O)N(C)c1nccn1C)c1cccc(Cl)c1 [Compound 1-43, (2S,3R)-3-((2-amino-6-methylpyridin-4-yl)methyl)-N2-(1-methyl-1H-imidazol-2-yl)-N1-((R)-1-(3-chlorophenyl)propyl)-N2-methyl-4-oxoazetidine-1,2-dicarboxamide]
> 8.00	> 4	CC[C@@H](NC(=O)N1C(=O)[C@H](Cc2ccnc(N)c2)[C@H]1C(=O)N(C)c1cnn(C)c1)c1ccccc1 [Compound 1-88, (2S,3R)-3-((2-aminopyridin-4-yl)methyl)-N2-(1-methyl-1H-pyrazol-4-yl)-N1-((R)-1-phenylpropyl)-N2-methyl-4-oxoazetidine-1,2-dicarboxamide]
> 8.00	1.02 to 2	CC[C@@H](NC(=O)N1C(=O)[C@H](Cc2ccnc(N)c2)[C@H]1C(=O)N(C)c1ccnn1C)c1cccc(Cl)c1 [Compound 1-4, (2S,3R)-3-((2-aminopyridin-4-yl)methyl)-N2-(1-methyl-1H-pyrazol-5-yl)-N1-((R)-1-(3-chlorophenyl)propyl)-N2-methyl-4-oxoazetidine-1,2-dicarboxamide]
> 8.00	> 4	CC[C@@H](NC(=O)N1C(=O)[C@H](Cc2cc(C)nc(N)c2)[C@H]1C(=O)N(C)c1ccn(C)n1)c1cccc(Cl)c1 [Compound 1-89, (2S,3R)-3-((2-amino-6-methylpyridin-4-yl)methyl)-N2-(1-methyl-1H-pyrazol-3-yl)-N1-((R)-1-(3-chlorophenyl)propyl)-N2-methyl-4-oxoazetidine-1,2-dicarboxamide]
> 8.00	> 4	CC[C@@H](NC(=O)N1C(=O)[C@H](Cc2ccnc(N)c2)[C@H]1C(=O)N(C)c1cscn1)c1ccccc1 [Compound 1-8, (2S,3R)-3-((2-aminopyridin-4-yl)methyl)-N2-(4-thiazolyl)-N1-((R)-1-phenylpropyl)-N2-methyl-4-oxoazetidine-1,2-dicarboxamide]
> 8.00	1.02 to 2	CC[C@@H](NC(=O)N1C(=O)[C@H](Cc2ccnc(N)c2)[C@H]1C(=O)N(C)c1ccn(C)n1)C1CCCCC1 [Compound 1-47, (2S,3R)-3-((2-aminopyridin-4-yl)methyl)-N2-(1-methyl-1H-pyrazol-3-yl)-N1-((R)-1-cyclohexylpropyl)-N2-methyl-4-oxoazetidine-1,2-dicarboxamide]
> 8.00	< 1	CN(C(=O)[C@@H]1[C@@H](Cc2ccnc(N)c2)C(=O)N1C(=O)N[C@@H](C1CCCCC1)C1CC1)c1ccn(C)n1 [Compound 1-58, (2S,3R)-3-((2-aminopyridin-4-yl)methyl)-N2-(1-methyl-1H-pyrazol-3-yl)-N1-((R)-cyclohexyl-cyclopropylmethyl)-N2-methyl-4-oxoazetidine-1,2-dicarboxamide]
> 8.00	2.02 to 4	CC[C@@H](NC(=O)N1C(=O)[C@H](Cc2cc(C)nc(N)c2)[C@H]1C(=O)N(C)c1ccn(C)n1)c1cccc(C)c1 [Compound 1-22, (2S,3R)-3-((2-amino-6-methylpyridin-4-yl)methyl)-N2-(1-methyl-1H-pyrazol-3-yl)-N1-((R)-1-(3-methylphenyl)propyl)-N2-methyl-4-oxoazetidine-1,2-dicarboxamide]
